According to publication PMC12066708 (Communications Biology, 2025):

Target: T1, Kell (Homo sapiens, UniProt P23276)
T1 sequence (P23276 1-732): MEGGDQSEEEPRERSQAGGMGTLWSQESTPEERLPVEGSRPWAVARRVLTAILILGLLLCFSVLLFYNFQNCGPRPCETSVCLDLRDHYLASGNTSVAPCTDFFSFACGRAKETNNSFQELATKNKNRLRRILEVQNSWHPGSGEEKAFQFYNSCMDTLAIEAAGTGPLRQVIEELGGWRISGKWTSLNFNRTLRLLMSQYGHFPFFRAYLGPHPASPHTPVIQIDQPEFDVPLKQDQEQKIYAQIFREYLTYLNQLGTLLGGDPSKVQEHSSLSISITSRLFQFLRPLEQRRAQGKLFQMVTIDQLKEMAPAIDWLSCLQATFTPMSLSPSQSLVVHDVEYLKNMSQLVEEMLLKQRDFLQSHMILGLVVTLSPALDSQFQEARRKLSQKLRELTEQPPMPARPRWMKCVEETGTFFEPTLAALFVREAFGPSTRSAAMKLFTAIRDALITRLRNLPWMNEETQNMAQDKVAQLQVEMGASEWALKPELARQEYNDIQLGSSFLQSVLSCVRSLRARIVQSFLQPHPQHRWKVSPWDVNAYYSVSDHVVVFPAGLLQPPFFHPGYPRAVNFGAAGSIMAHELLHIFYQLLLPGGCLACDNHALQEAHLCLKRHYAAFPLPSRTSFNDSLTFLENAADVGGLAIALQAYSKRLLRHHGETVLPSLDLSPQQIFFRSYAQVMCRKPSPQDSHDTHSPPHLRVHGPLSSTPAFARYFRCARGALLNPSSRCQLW
Experiment: microscale thermophoresis
Format: binding

Q: O=C(O)CNC(=O)C(CS)Cc1ccccc1 (stereo not shown) [thiorphan] was tested. Which Kd did it give?
A: Its Kd is 33 µM.
